Assay results as given in US20160221992A1, “DENDRITIC COMPOUNDS INCLUDING A CHELATING, FLUOROCHROME OR RECOGNITION AGENT, COMPOSITIONS INCLUDING SAME AND USES THEREOF” (UNIVERSITE DE STRASBOURG, priority 2013, published 2016).

System: murine melanoma (B16FO line)
Assay: Quantitative study of tumoral fixation and biodistribution of the radiolabeled compound (ex-vivo gamma counting after IV injection)
Format: in vivo, C57B16 mice
Details: for % Elimination/Al / Ratio (g)/Al TU/kidneys / Ratio (g)/Al Tu/Liver / Ratio (g)/Al Tu/Lungs / Ratio (g)/Al Tu/blood / Tumor (g/Al %) / Total Elimination (%/Al): IV; for tumoral uptake compared with the ligand alone (AP045): APAG22-1: at two hours post-IV
Protocol: C57B16 mice bearing xenografts of murine melanoma (B16FO line) obtained by subcutaneous injection of 300 000 cells suspended in 100 μl of RPMI culture medium are injected subcutaneously in the back. The experiment is performed when the tumors are palpable. i.e. about 10 days […]. All the experiments (tumoral graft, injection and imaging) are carried out under isoflurane/oxygen (2.5%/2.5%) gas anesthesia.
Injection of 50 to 100 microliters of the radiolabeled solution, with a maximum activity of 20 MBQ, by direct intravenous injection (caudal vein). The activity of the empty syringe after injection+compress is also measured for calculating the actual activity injected (actual Ac injected=Ac normalized full syringe—normalized activity (empty syringe and compress). Normalization consists in calculating the theoretical activity at one and the same time chosen as reference (for example the time of injection). The measurements are performed on a regularly calibrated activity meter for medical use (Medisystem©).
Scintigraphic imaging is carried out using a dedicated small animal micro-5 imager SPECT-CT (BIOSCAN™). A planar scintigraphic image is obtained immediately after injection to verify absence of intracaudal stasis. If there is stasis, the mouse will be sacrificed at late times (24 or 48 h). Static scintigraphic images may be recorded at 2 h, 4 h, 24 h and 48 h (Imager micro-SPECT-CT BIOSCAN©).
This is done ex-vivo by gamma counting of the various samples, using a gamma well counter for medical use, regularly calibrated for the isotopes used (Tc-99m and In-111). The animals are euthanized according to the protocols allowed by the animal ethics committee at 2 h, 4 h, 24 h or 48 h. The main organs are removed (brain, spleen, kidneys, lungs, heart, alimentary canal, liver) as well as a fragment of skin, muscle, bone and a blood sample and the whole tumor. Each sample is weighed and its gamma activity is counted in a sample-changing well counter for dedicated medical use, calibrated for the radioelements used. The animal's carcass is also weighed after removing the tail; these samples are incinerated and their gamma activity is also measured. The gamma activity of the samples containing all the collected urine and the feces is also measured. The activity of each sample is normalized (relative to the time of injection), and the ratio of the activity of each sample is calculated relative to the total activity injected (=the sum of all of the activities measured except that of the tail), expressed in % per gram of tissue, for calculating the ratio of the activity present in the tumor relative to the main organs (liver, kidneys, lungs and blood). The percentage of the activity eliminated is calculated.
The mean values of all of the data for all of the mice whose data are exploitable are calculated, as well as after eliminating the animals with urinary excretion that is too quick (>50% at 2 h or 75% at 4 h, as well as the mice with tumors >2 g, as the existence of necrosis may distort the calculation of the ratio of fixation in the tumor).
The biodistribution data of the various dendrimer compounds coupled to the IFC01102 ligand (also called amine R) and to a chelating agent are compared with those of the ligand alone coupled to the DOTA chelating agent (compound AP045) and radiolabeled with the same radioelement. 8.5 Results with Compound APAG9-1 (Radiolabeled with Tc99m) The radiochemical purity is above 95%, according to the chromatographic profile obtained as described above (example 5). 12 animals were injected. The average activity injected is 3.5±2.4 MBq. 2 animals were euthanized at 2 h, 4 at 24 h and 48 h post-injection. Examples of planar image immediately post-injection and 2 hours post-injection are illustrated in FIG. 3.

[1] = 48 post-IV, Indium-111-radiolabeled, first series (all animals)
[2] = 48 post-IV, Indium-111-radiolabeled, second series (two mice with too quick urinary excretion eliminated)
[3] = 2 h post-iv, Indium-111-radiolabeled, first series (all animals)
[4] = 2 h post-iv, Indium-111-radiolabeled, second series (two mice with too quick urinary excretion eliminated)
[5] = 4 h post-IV, Indium-111-radiolabeled, first series (all animals)
[6] = 4 h post-IV, Indium-111-radiolabeled, second series (two mice with too quick urinary excretion eliminated)
[7] = 24 h post-IV, Indium-111-radiolabeled, first series (all animals)
[8] = 24 h post-IV, Indium-111-radiolabeled, second series (two mice with too quick urinary excretion eliminated)
[9] = 48 post-IV, Tc99m-radiolabeled, first series (all animals)
[10] = 48 post-IV, Tc99m-radiolabeled, second series (mice with too quick urinary secretion or too large tumor eliminated)
[11] = 2 h post-iv, Tc99m-radiolabeled, first series (all animals)
[12] = 2 h post-iv, Tc99m-radiolabeled, second series (mice with too quick urinary secretion or too large tumor eliminated)
[13] = 4 h post-IV, Tc99m-radiolabeled, first series (all animals)
[14] = 4 h post-IV, Tc99m-radiolabeled, second series (mice with too quick urinary secretion or too large tumor eliminated)
[15] = 24 h post-IV, Tc99m-radiolabeled, first series (all animals)
[16] = 24 h post-IV, Tc99m-radiolabeled, second series (mice with too quick urinary secretion or too large tumor eliminated)

CCN(CC)CCNC(=O)c1cnc2cc(NC(=O)NCCOCCOCCNC(=O)CCOCCOCCOCCOCCNC(=O)CCN(CCC(=O)NCCOCCOCCOCCOCCC(=O)NCCOCCOCCNC(=O)Nc3ccc4nc(C(=O)NCCN(CC)CC)cnc4c3)Cc3cn(CCOCCOCCOCCOCCOCCOCCOCCNC(=O)CN4CCN(CC(=O)O)CCN(CC(=O)O)CCN(CC(=O)O)CC4)nn3)ccc2n1 [AP071]
% Elimination/Al [1]: 8.5E+01% | Ratio (g)/Al TU/kidneys [1]: 3.15E−01 | Ratio (g)/Al Tu/Liver [1]: 4.79E−01 | Ratio (g)/Al Tu/Lungs [1]: 2.85E+00 | Ratio (g)/Al Tu/blood [1]: 1.17E+01 | Tumor (g/Al %) [1]: 3.40E−01 g/Al % | % Elimination/Al [2]: 8.5E+01% | Ratio (g)/Al TU/kidneys [2]: 3.15E−01 | Ratio (g)/Al Tu/Liver [2]: 4.79E−01 | Ratio (g)/Al Tu/Lungs [2]: 2.86E+00 | Ratio (g)/Al Tu/blood [2]: 1.17E+01 | Tumor (g/Al %) [2]: 3.40E−01 g/Al % | % Elimination/Al [3]: 6.0E+01% | Ratio (g)/Al TU/kidneys [3]: 2.41E−02 | Ratio (g)/Al Tu/Liver [3]: 1.38E−01 | Ratio (g)/Al Tu/Lungs [3]: 2.43E−01 | Ratio (g)/Al Tu/blood [3]: 8.69E−01 | Tumor (g/Al %) [3]: 4.42E+00 g/Al % | % Elimination/Al [4]: 5.1E+01% | Ratio (g)/Al TU/kidneys [4]: 2.25E−01 | Ratio (g)/Al Tu/Liver [4]: 4.89E−01 | Ratio (g)/Al Tu/Lungs [4]: 9.54E−01 | Ratio (g)/Al Tu/blood [4]: 2.73E+00 | Tumor (g/Al %) [4]: 6.57E+00 g/Al % | tumoral uptake (in words) (4 hours after IV injection, Indium-111): very high | % Elimination/Al [5]: 7.3E+01% | Ratio (g)/Al TU/kidneys [5]: 1.12E+00 | Ratio (g)/Al Tu/Liver [5]: 2.09E+00 | Ratio (g)/Al Tu/Lungs [5]: 6.20E+00 | Ratio (g)/Al Tu/blood [5]: 3.92E+01 | Tumor (g/Al %) [5]: 1.62E+01 g/Al % | % Elimination/Al [6]: 6.9E+01% | Ratio (g)/Al TU/kidneys [6]: 1.39E+00 | Ratio (g)/Al Tu/Liver [6]: 2.80E+00 | Ratio (g)/Al Tu/Lungs [6]: 8.36E+00 | Ratio (g)/Al Tu/blood [6]: 7.20E+01 | Tumor (g/Al %) [6]: 2.25E+01 g/Al % | % Elimination/Al [7]: 8.5E+01% | Ratio (g)/Al TU/kidneys [7]: 4.61E−01 | Ratio (g)/Al Tu/Liver [7]: 6.98E−01 | Ratio (g)/Al Tu/Lungs [7]: 2.88E+00 | Ratio (g)/Al Tu/blood [7]: 9.46E+00 | Tumor (g/Al %) [7]: 3.07E+00 g/Al % | % Elimination/Al [8]: 8.5E+01% | Ratio (g)/Al TU/kidneys [8]: 4.61E−01 | Ratio (g)/Al Tu/Liver [8]: 6.98E−01 | Ratio (g)/Al Tu/Lungs [8]: 2.88E+00 | Ratio (g)/Al Tu/blood [8]: 9.46E+00 | Tumor (g/Al %) [8]: 3.07E+00 g/Al % | tumoral uptake compared with the ligand alone (AP045): far higher

CCN(CC)CCNC(=O)c1cnc2cc(NC(=O)NCCOCCOCCNC(=O)CCOCCOCCOCCOCCOCCOCCOCCOCCOc3c(OCCOCCOCCOCCOC)cc(C(=O)NCCCNC(=O)C(CCCNC(=O)c4cccc(O)c4O)(CCCNC(=O)c4cccc(O)c4O)CCCNC(=O)c4cccc(O)c4O)cc3OCCOCCOCCOCCOC)ccc2n1 [APAG22-1]
Ratio (g)/Al TU/kidneys [9]: 1.74E−02 | Ratio (g)/Al Tu/Liver [9]: 1.17E−01 | Ratio (g)/Al Tu/Lungs [9]: 2.22E+00 | Ratio (g)/Al Tu/blood [9]: 3.80E+00 | Total Elimination (%/Al) [9]: 7.36E+01 %/Al | Tumor (g/Al %) [9]: 6.32E−01 g/Al % | Ratio (g)/Al TU/kidneys [10]: 1.74E−02 | Ratio (g)/Al Tu/Liver [10]: 1.17E−01 | Ratio (g)/Al Tu/Lungs [10]: 2.22E+00 | Ratio (g)/Al Tu/blood [10]: 3.80E+00 | Total Elimination (%/Al) [10]: 7.32E+01 %/Al | Tumor (g/Al %) [10]: 6.68E−01 g/Al % | Ratio (g)/Al TU/kidneys [11]: 3.36E−01 | Ratio (g)/Al Tu/Liver [11]: 3.06E−01 | Ratio (g)/Al Tu/Lungs [11]: 5.44E−01 | Ratio (g)/Al Tu/blood [11]: 3.69E−01 | Total Elimination (%/Al) [11]: 2.59E+01 %/Al | Tumor (g/Al %) [11]: 2.98E+00 g/Al % | Ratio (g)/Al TU/kidneys [12]: 4.75E−01 | Ratio (g)/Al Tu/Liver [12]: 3.15E−01 | Ratio (g)/Al Tu/Lungs [12]: 4.17E−01 | Ratio (g)/Al Tu/blood [12]: 1.10E+00 | Total Elimination (%/Al) [12]: 1.46E+01 %/Al | Tumor (g/Al %) [12]: 3.50E+00 g/Al % | Ratio (g)/Al TU/kidneys [13]: 1.09E−01 | Ratio (g)/Al Tu/Liver [13]: 1.90E−01 | Ratio (g)/Al Tu/Lungs [13]: 9.45E−01 | Ratio (g)/Al Tu/blood [13]: 4.62E−01 | Total Elimination (%/Al) [13]: 3.58E+01 %/Al | Tumor (g/Al %) [13]: 2.14E+00 g/Al % | Ratio (g)/Al TU/kidneys [14]: 1.09E−01 | Ratio (g)/Al Tu/Liver [14]: 1.90E−01 | Ratio (g)/Al Tu/Lungs [14]: 9.45E−01 | Ratio (g)/Al Tu/blood [14]: 4.62E−01 | Total Elimination (%/Al) [14]: 3.58E+01 %/Al | Tumor (g/Al %) [14]: 2.14E+00 g/Al % | Ratio (g)/Al TU/kidneys [15]: 2.11E−02 | Ratio (g)/Al Tu/Liver [15]: 1.20E−01 | Ratio (g)/Al Tu/Lungs [15]: 2.26E+00 | Ratio (g)/Al Tu/blood [15]: 9.00E+00 | Total Elimination (%/Al) [15]: 6.45E+01 %/Al | Tumor (g/Al %) [15]: 1.19E+00 g/Al % | Ratio (g)/Al TU/kidneys [16]: 2.11E−02 | Ratio (g)/Al Tu/Liver [16]: 1.20E−01 | Ratio (g)/Al Tu/Lungs [16]: 2.26E+00 | Ratio (g)/Al Tu/blood [16]: 9.00E+00 | Total Elimination (%/Al) [16]: 5.45E+01 %/Al | Tumor (g/Al %) [16]: 1.19E+00 g/Al % | tumoral uptake compared with the ligand alone (AP045): higher | time at which the maximum tumoral uptake is observed (after IV injection of the radiolabeled compound): 2 h | elimination compared with the ligand alone (AP045) (at 24 hours and 48 hours): far greater | Tumor to Liver ratio compared with the ligand alone (AP045) (mouse, in vivo): much higher
